These results are taken from US9399145B2, “Nanoscale neuromodulating platform for retina neuron activation apparatus and method” (The Board of Trustees of the University of Illinois, priority 2005, dated 2016).

Structures are written as SMILES.

One data set concerns the target T1, α1β2γ2 GABAARs (UniProt P18507+P62813+P63138).
T1 construct: expressed in transfected cells; host or cells: Xenopus laevis oocytes
Type of data set: binding. The note with it: 1 μM competitor added to 10 μM 23 and 3 μM GABA. The text has this:
Tomlinson and Rosenthal, the linear chain of 22 is further extended by an amide-linked PEG5000 that is terminated by biotin. […] Bright-field images of the (opaque) oocytes illustrate the focus of the oocyte border during fluorescence microscopy.

Data set [1] deals with T2, α1β2γ2 GABAARs (rat α1, rat β2 and human γ2S) (UniProt P18507+P62813+P63138).
T2 construct: expressed in transfected cells; host or cells: Xenopus laevis oocytes
Nature of the data set: Two-electrode voltage clamp of α1β2γ2 GABAAR-expressing Xenopus oocytes. The data set is classed as cell-based. The text has this: Purple and gray bars indicate periods of presentation of UV light (purple) and high-intensity visible light (High-Vis) (gray), respectively. […] These amplitude determination conditions are denoted by numbers beneath the waveform in FIG. 35d.
In each of the MPC088 experiments, the cis-dominant form was generated by UV light during static bathing. […] Numbers beneath the waveform in FIG. 2(c) denote amplitude determination conditions for that experiment.
Oocytes expressing α1β2γ2 receptors (rat α1, rat β2 and human γ2S) were prepared and studied by two-electrode voltage-clamp recording^58 (holding potential: −70 mV; amplifier: GeneClamp500B; Axon Instruments, Foster City, Calif.). Unless otherwise indicated, oocytes were superfused with Ringer solution (physiological saline) at a rate of ˜1 mL/min. The experiments of FIGS. 35d-e, 36c-e and 47 involved periods of static bathing, i.e., halted superfusion. The γ2(A79C) subunit was prepared by site-directed mutagenesis. Oocyte electrophysiological experiments were carried out in room light. A UV light-emitting diode (peak wavelength: 365 nm; Hamamatsu Photonics, Japan) and a microscope illuminator (white light; Schott Fostec, Auburn, N.Y.) provided UV and visible stimulating light. As measured at the position of the oocyte, the intensity of the UV light at 365 nm was 220 μW/mm^2. At 440 nm, the nominal strength of the visible (white) light (referred to as high-intensity visible light) was 28 μW/mm^2, and that of the ambient room illumination was 0.045 μW/mm^2. In all experiments, low-intensity visible light from the microscope illuminator (3 μW/mm^2 at 440 nm) was present at all times except those involving high-intensity visible illumination. Electrophysiological data were obtained using Clampex 8.2 (Axon Instruments), analyzed using Clampfit 10.0 (Axon Instruments) and OriginPro7.5 (OriginLab, Northampton, Mass.). All statistical analysis employed a two-sample t-test.
For orientation: Two-electrode voltage clamp holds a large cell at a set potential and records current.

The next data set addresses T3, α4β3δ GABAAR (Homo sapiens, UniProt P28472+P48169).
T3 construct: expressed in transfected cells; host or cells: Xenopus oocytes
The data set can be described thus: Two-electrode voltage clamp of α4β3δ GABAAR-expressing oocytes. The data set is classed as cell-based. The note with it: 200 μM propofol and 50 nM GABA. The text has this: Propofol is known to modulate GABAA receptors that contain a β subunit. […] Data in each group was obtained from 4 oocytes.

Data set [2] has as its system GABAARs of cerebellar PNs. Nature of the data set: Whole-cell voltage clamp of cerebellar Purkinje neurons in slices, GABA-evoked currents with UV/blue light. The data set is classed as cell-based, mouse. The following applies: 10 μM GABA plus 300 μM propofol.
A further data set is described as follows: Hydrophobicity (log P). The data set is classed as physicochemical.
The test system of data set [3] is GABAARs of cerebellar PNs. Nature of the data set: Test for direct agonist activity on Purkinje neurons (recirculating MPC088, no exogenous GABA). The data set is classed as cell-based, mouse. The following applies: 30 μM gabazine added to 30 μM MPC088. The method, then:
To test for direct agonist activity of MPC088 on PNs, cerebellar slices were perfused with recirculating 30 μM MPC088 (the maximal MPC088 concentration that could be reliably maintained solubilized in bicarbonate-buffered solution). MPC088 was converted to cis-dominant form by a 2-min exposure to UV light (LED, 365 nm/160 mW, Mouser, Inc., Mansfield, Tex.; LED driver, 700 mA BuckPuck DC Driver, Quadica Developments, Inc., Brantford, Ontario, Canada), before its dilution into the recirculating external solution. The same LED was then used to continuously UV-illuminate the recirculating solution for the duration of the experiment. Whole-cell voltage clamp recordings were obtained from PNs and determined the change in membrane current produced by alternating blue and UV illumination of the slice, as in the FIG. 40 experiments. […] The temporal sequence of illumination differed among the experiments (e.g., only the cell in a received multiple blue/UV exposures), but the data plotted are the amplitudes from the blue to UV transition (in the case of the cell in a, this is the blue/UV transition from the first of the three exposures). Yellow-filled data points indicate results from the experiment in a. Each data point is the average obtained from 4-10 consecutive recordings. […] Error bars represent the SEM (FIG. 42b).

For the molecule `CN1C(=O)CN=C(c2ccccc2)c2cc(Cl)ccc21` [diazepam, reference compound], the “effect on fluorescent border from binding of 23 (competition)” value on α1β2γ2 GABAARs is given as “virtually eliminated”. In data set [1], the “potentiation factor of the 3 μM GABA response” value is on record as 1.92±0.36.

As to `CC(C)c1cccc(C(C)C)c1O` [propofol, reference compound], the “response relative to the saturating GABA-alone response” value on α4β3δ GABAAR came out at 1.2±0.1 fold. In data set [2], the “light-induced current change” value is reported as “little or no light-induced current change”. Moreover, the logP (as a rule, the decadic logarithm of the partition coefficient of the neutral form, usually between octanol and water) in the data set “Hydrophobicity (log P)” was roughly 4. In addition, the “maximum current of direct activation relative to the 100 μM GABA response” value in data set [1] is “about 40%”.

Take `COc1ccc(-c2ccc(=N)n(CCCC(=O)O)n2)cc1` [gabazine, reference compound]: the “average current remaining relative to the pre-gabazine current” value in data set [3] is recorded as 11±3%. Also, the “effect of antagonist on the MPC088-elicited response” value in data set [1] (picrotoxin 100 μg, gabazine 30 μg, bicuculline 100 μM (so in the source)) was “not sensitive”.
